In general, viability refers to a read-out of living cells in per cent, often relative to untreated cells.

The nature of the series: in vitro. To be noted: human, hek293t cells.
In the case of `C=CC(=O)N1CCC(C(=O)N2CCCC(C3OCCO3)C2)CC1` (stereo not drawn) [2-L16, 1-{4-[3-(1,3-dioxolan-2-yl)piperidine-1-carbonyl]piperidin-1-yl}prop-2-en-1-one], the viability at 48 h, 25 µM stood at 58%. For `CC(C)C1C(=O)Nc2ccc(Cl)cc2N1C(=O)CCl` (stereo not drawn) [5-C11, 6-chloro-4-(2-chloroacetyl)-3-(propan-2-yl)-1,2,3,4-tetrahydroquinoxalin-2-one], the viability at 48 h, 25 µM was -0.0252%. Take `C=CC(=O)N1CCC(C(=O)Oc2ccc(NC(C)=O)cc2)CC1` [3-M16, 4-acetamidophenyl 1-(prop-2-enoyl)piperidine-4-carboxylate]: the viability at 48 h, 25 µM worked out at 93.3%. Consider `O=C(CCl)NC(c1ccccc1)C1CCCCC1` (stereo not drawn) [6-E12, 2-chloro-N-[cyclohexyl(phenyl)methyl]acetamide], for which the viability at 48 h, 25 µM was 1.12%. The same measure for `O=C(Nc1cc(F)ccc1F)N1CCSSCC1` [10-H11, N-(2,5-difluorophenyl)-1,2,5-dithiazepane-5-carboxamide]: 94.9%; for `CC(C)Oc1ccccc1C=C(C#N)C(=O)Nc1ccccc1Cl` [9-N20, N-(2-chlorophenyl)-2-cyano-3-[2-(propan-2-yloxy)phenyl]prop-2-enamide]: 104%.

As to `C=CC(=O)Nc1ccc(C(=O)C(F)F)cc1` [1-M20, N-[4-(2,2-difluoroacetyl)phenyl]prop-2-enamide], the viability at 48 h, 25 µM was 104%. The same measure for `C=CC(=O)N1CCN(Cc2cc(=O)n3ccsc3n2)CC1` [3-F22, 7-{[4-(prop-2-enoyl)piperazin-1-yl]methyl}-5H-[1,3]thiazolo[3,2-a]pyrimidin-5-one]: 90.5%; for `O=C(CCl)NCc1cccc(NC(=O)C2CC2)c1` [4-D22, N-{3-[(2-chloroacetamido)methyl]phenyl}cyclopropanecarboxamide]: 1.24%; for `Cc1ccc(-c2csc(NC(=O)CCl)n2)cc1C` [5-F16, 2-chloro-N-[4-(3,4-dimethylphenyl)-1,3-thiazol-2-yl]acetamide]: 0.595%. The same measure for `O=C(CCl)C1CCCC2(CC2)C1` (stereo not drawn) [10-E11, 2-chloro-1-{spiro[2.5]octan-5-yl}ethan-1-one]: 79.6%; for `Cc1cc(C)cc(OCCN(C)C(=O)CCl)c1` [6-F03, 2-chloro-N-[2-(3,5-dimethylphenoxy)ethyl]-N-methylacetamide]: 0.538%.

`O=[N+]([O-])c1ccccc1S(=O)(=O)N1CCSSCC1` [10-N09, 5-(2-nitrobenzenesulfonyl)-1,2,5-dithiazepane]: the viability at 48 h, 25 µM came to 117%. The same measure for `C=CC(=O)N[C@H](C)c1cnnn1C` [3-B11, N-[(1R)-1-(1-methyl-1H-1,2,3-triazol-5-yl)ethyl]prop-2-enamide]: 73.8%; for `C=CC(=O)NC1(Cn2cccn2)CC(F)(F)C1` [2-J17, N-{3,3-difluoro-1-[(1H-pyrazol-1-yl)methyl]cyclobutyl}prop-2-enamide]: 54.5%; for `CC(Cl)C(=O)NC1CCN(CC(=O)Nc2ccccc2)CC1` (stereo not drawn) [7-E13, 2-chloro-N-{1-[(phenylcarbamoyl)methyl]piperidin-4-yl}propanamide]: 85.2%. The same measure for `COc1cc2c(cc1OC)C(c1ccccc1)N(C(=O)CCl)CC2` (stereo not drawn) [6-K12, 2-chloro-1-(6,7-dimethoxy-1-phenyl-1,2,3,4-tetrahydroisoquinolin-2-yl)ethan-1-one]: 0.105%; for `Cc1c(C=C(C#N)C(=O)Nc2nccs2)cc(C#N)n1C` [8-B18, 2-cyano-3-(5-cyano-1,2-dimethyl-1H-pyrrol-3-yl)-N-(1,3-thiazol-2-yl)prop-2-enamide]: 94.1%. Turning to `C=CC(=O)N1CCN(C(C)c2nc(C)no2)CC1` (stereo not drawn) [3-M11, 1-{4-[1-(3-methyl-1,2,4-oxadiazol-5-yl)ethyl]piperazin-1-yl}prop-2-en-1-one], the viability at 48 h, 25 µM was 61%.

On to `Cc1ccc(NC(=O)C(C#N)=Cc2cccc(F)c2)cc1` [8-F11, 2-cyano-3-(3-fluorophenyl)-N-(4-methylphenyl)prop-2-enamide], for which the viability at 48 h, 25 µM is 85.7%.

In the case of `O=C(CCl)NCCc1cnn(-c2ccccc2)c1` [6-G22, 2-chloro-N-[2-(1-phenyl-1H-pyrazol-4-yl)ethyl]acetamide], the viability at 48 h, 25 µM was found to be 1.31%. The same measure for `Cc1cc(C(=O)CCl)c(C)n1-c1ccc(Cl)c(C(F)(F)F)c1` [10-L18, 2-chloro-1-{1-[4-chloro-3-(trifluoromethyl)phenyl]-2,5-dimethyl-1H-pyrrol-3-yl}ethan-1-one]: 0.747%; for `C=CC(=O)N1CCN(Cc2nc(C(C)C)no2)CC1` [3-G11, 1-(4-{[3-(propan-2-yl)-1,2,4-oxadiazol-5-yl]methyl}piperazin-1-yl)prop-2-en-1-one]: 55.2%; for `C=CC(=O)N1CCC(C(=O)NC2CCCc3nc(C)ncc32)CC1` (stereo not drawn) [3-I17, N-(2-methyl-5,6,7,8-tetrahydroquinazolin-5-yl)-1-(prop-2-enoyl)piperidine-4-carboxamide]: 32%. For the molecule `N#CC(=Cc1cccc(O)c1)C(=O)NCc1ccc(Cl)cc1` [8-P14, N-[(4-chlorophenyl)methyl]-2-cyano-3-(3-hydroxyphenyl)prop-2-enamide], the viability at 48 h, 25 µM worked out at 64.4%. The same measure for `CNC(=O)c1ccc(C2CCCCN2C(=O)C(C)Cl)n1C` (stereo not drawn) [7-N15, 5-[1-(2-chloropropanoyl)piperidin-2-yl]-N,1-dimethyl-1H-pyrrole-2-carboxamide]: 97.6%. The same measure for `Cc1cc(C=C(C#N)C(=O)NCc2ccco2)cc(C)c1O` [8-J16, 2-cyano-N-[(furan-2-yl)methyl]-3-(4-hydroxy-3,5-dimethylphenyl)prop-2-enamide]: 114%. `C=CC(=O)NCCC(=O)N1CCN(c2nc(C)cs2)CC1` [3-F07, N-{3-[4-(4-methyl-1,3-thiazol-2-yl)piperazin-1-yl]-3-oxopropyl}prop-2-enamide]: the viability at 48 h, 25 µM was 52.1%.

With `CCc1cc(SC#N)cc(CC)c1NC(=O)CCl` [4-J12, 2-chloro-N-[4-(cyanosulfanyl)-2,6-diethylphenyl]acetamide], the viability at 48 h, 25 µM was determined as 84.8%. With `O=C(CCl)N1CC(NC(=O)C(F)(F)F)CCC1C(F)(F)F` (stereo not drawn) [5-O18, N-[1-(2-chloroacetyl)-6-(trifluoromethyl)piperidin-3-yl]-2,2,2-trifluoroacetamide], the viability at 48 h, 25 µM worked out at 6.17%. The same measure for `CN(C)C(=O)c1csc(C(=O)CCl)c1` [10-I07, 5-(2-chloroacetyl)-N,N-dimethylthiophene-3-carboxamide]: 56.6%; for `Cn1cc(NC(=O)CCl)c(C(=O)NC2CCC2)n1` [5-A22, 4-(2-chloroacetamido)-N-cyclobutyl-1-methyl-1H-pyrazole-3-carboxamide]: 2.84%; for `O=C(CCl)NCc1cc(O)ccc1Cl` [7-J21, 2-chloro-N-[(2-chloro-5-hydroxyphenyl)methyl]acetamide]: 0.249%. The same measure for `Cc1ccoc1C=C(C#N)C(=O)NCCc1ccccc1` [9-N03, 2-cyano-3-(3-methylfuran-2-yl)-N-(2-phenylethyl)prop-2-enamide]: 93.9%. The same measure for `N#CC(=Cc1cccc(Oc2ccccc2)c1)C(=O)NC(N)=O` [8-D07, {2-cyano-2-[(3-phenoxyphenyl)methylidene]acetyl}urea]: 134%; for `C=CC(=O)N1CCC(C(=O)N2CCN(c3ccnc(C)n3)CC2)CC1` [2-L06, 1-{4-[4-(2-methylpyrimidin-4-yl)piperazine-1-carbonyl]piperidin-1-yl}prop-2-en-1-one]: 88.5%. With `C=CC(=O)NCC(C)c1ncc(C)s1` (stereo not drawn) [1-P10, N-[2-(5-methyl-1,3-thiazol-2-yl)propyl]prop-2-enamide], the viability at 48 h, 25 µM turned out to be 43.9%. The same measure for `C=CC(=O)N1CCC(C(=O)Nc2cccc(NC(=O)C(C)C)c2)CC1` [3-F05, N-[3-(2-methylpropanamido)phenyl]-1-(prop-2-enoyl)piperidine-4-carboxamide]: 53.3%; for `C=CC(=O)N1CCC(C(=O)NC(C)(C)c2ccc(F)c(F)c2)CC1` [1-L04, N-[2-(3,4-difluorophenyl)propan-2-yl]-1-(prop-2-enoyl)piperidine-4-carboxamide]: 91.1%. Consider `CN(C)C(=O)c1cc2n(n1)CC1(CCN(C(=O)CCl)CC1)OC2` [5-K11, 1-(2-chloroacetyl)-N,N-dimethyl-4',7'-dihydrospiro[piperidine-4,6'-pyrazolo[3,2-c][1,4]oxazine]-2'-carboxamide], for which the viability at 48 h, 25 µM worked out at 0.714%. The same measure for `C=CC(=O)Nc1cc(Cl)cc(C)c1OC` [1-E16, N-(5-chloro-2-methoxy-3-methylphenyl)prop-2-enamide]: 45.9%; for `C=CC(=O)NCc1coc(-c2ccc(C)cc2)n1` [2-F13, N-{[2-(4-methylphenyl)-1,3-oxazol-4-yl]methyl}prop-2-enamide]: 48.2%. For `C=CC(=O)N1CSCC1C(=O)NCC1CC1` (stereo not drawn) [1-P17, N-(cyclopropylmethyl)-3-(prop-2-enoyl)-1,3-thiazolidine-4-carboxamide], the viability at 48 h, 25 µM is 105%.

As to `Cc1ccc(NC(=O)N2CCN(C(=O)C=CCN(C)C)CC2)cc1` [10-H16, 4-[4-(dimethylamino)but-2-enoyl]-N-(4-methylphenyl)piperazine-1-carboxamide], the viability at 48 h, 25 µM turned out to be 94.2%.

For the molecule `COc1ccc(C=C(C#N)C(=O)Nc2cccc(C)c2)cc1` [8-M03, 2-cyano-3-(4-methoxyphenyl)-N-(3-methylphenyl)prop-2-enamide], the viability at 48 h, 25 µM turned out to be 95.7%.

As for `C=CC(=O)Nc1ccc(C(=O)N[C@@H]2CCN(C(C)=O)C2)cc1` [2-F20, N-[(3R)-1-acetylpyrrolidin-3-yl]-4-(prop-2-enamido)benzamide], the viability at 48 h, 25 µM came out at 73.4%. Turning to `C=CC(=O)NCc1cn2c(n1)CCCC2` [3-L20, N-({5H,6H,7H,8H-imidazo[1,2-a]pyridin-2-yl}methyl)prop-2-enamide], the viability at 48 h, 25 µM amounted to 103%. The same measure for `CC(Cl)C(=O)N(C)Cc1ncc(C2CC2)o1` (stereo not drawn) [5-B22, 2-chloro-N-[(5-cyclopropyl-1,3-oxazol-2-yl)methyl]-N-methylpropanamide]: 66.9%.

The values above are taken from article PMC11995724, “Antibiotic target discovery by integrated phenotypic and activity-based profiling of electrophilic fragments” (Cell chemical biology, 2025).
